pIC50: −log10 of the molar value. Read-outs that look alike come from different tables or passages of the source.
Assays:
[1] = target: T1, Menin-T349M (Homo sapiens, UniProt O00255, T344M); assay: Fluorescence polarization assay of Menin binding to MLL peptide, T349M mutant; conditions: FP, 8 nM Menin, 4 nM MLL peptide
T1 sequence (O00255 1-615 isoform O00255-1 T349M): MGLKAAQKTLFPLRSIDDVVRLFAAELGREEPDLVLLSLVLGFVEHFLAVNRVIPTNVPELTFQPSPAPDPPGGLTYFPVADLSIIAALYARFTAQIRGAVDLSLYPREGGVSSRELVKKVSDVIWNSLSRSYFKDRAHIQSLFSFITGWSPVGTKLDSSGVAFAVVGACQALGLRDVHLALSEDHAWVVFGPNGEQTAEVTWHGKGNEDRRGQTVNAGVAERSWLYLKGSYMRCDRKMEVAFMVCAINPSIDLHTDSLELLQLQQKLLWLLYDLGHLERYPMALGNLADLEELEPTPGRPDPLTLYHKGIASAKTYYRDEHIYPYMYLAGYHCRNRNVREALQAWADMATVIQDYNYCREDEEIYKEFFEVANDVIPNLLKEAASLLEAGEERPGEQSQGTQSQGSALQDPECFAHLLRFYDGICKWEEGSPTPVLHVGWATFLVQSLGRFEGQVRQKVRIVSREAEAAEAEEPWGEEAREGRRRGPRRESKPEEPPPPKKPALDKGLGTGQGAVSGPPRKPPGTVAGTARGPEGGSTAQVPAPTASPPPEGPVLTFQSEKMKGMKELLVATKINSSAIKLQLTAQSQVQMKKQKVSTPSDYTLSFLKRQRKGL
Source text: • 1. Objective: To evaluate the inhibitory activity of compounds against wild-type Menin protein (Menin-WT) and its mutant variants (Menin-M327V, Menin-M327I, Menin-T349M, Menin-S160T, Menin-S160C, Menin-G331R, and Menin-G331D). • 2. Experimental Principle: The experiment employed fluorescence polarization (FP) to detect the binding of wild-type Menin protein and its mutant variants to MLL peptide. In the absence of inhibitors, binding of wild-type Menin protein and its mutant variants to MLL peptide generates a high FP signal; upon addition of inhibitors, the binding between Menin proteins and MLL peptide is disrupted, resulting in a low FP signal. • 3. Experimental Materials: Final concentration of wild-type Menin protein and its mutant variants: 8 nM; final concentration of MLL peptide: 4 nM. Assay buffer: 50 mM Tris-HCl (pH 8.0), 120 mM NaCl, 0.005% CA-630, 2 mM DTT. • 4. […] The plate was centrifuged at 1000 rpm for 60 seconds. Subsequently, 10 µL of MLL peptide was added to each assay well. The plate was centrifuged at 1000 rpm for 60 seconds and sealed with a sealing membrane. After incubation at 23°C for 60 minutes, the plate was read using a PerkinElmer Envision reader. Data Analysis: [formula]
Curve fitting: XLFIT software was used for curve fitting, employing a four-parameter logistic model with percent inhibition versus log(compound concentration) as variables.

[2] = target: T2, hERG potassium channel (Homo sapiens, UniProt Q12809); assay: Inhibition of hERG current, manual whole-cell patch-clamp in HEK293 cells stably transfected with hERG; type: cell-based
T2 construct: expressed in transfected cells; host or cells: HEK293 (HEK-293-hERG)
Source text: • 1. Objective: To evaluate the inhibitory effect of test compounds on hERG current in HEK293 cells stably transfected with the hERG potassium channel using manual patch-clamp technique. • 2. Experimental Materials: The test compound was Compound 3 prepared according to the examples of the present invention; the positive control compound SNDX-5613 was purchased from Chengdu Zhihui Zhongxin Biomedical Co., Ltd.; HEK293 cells were obtained from Procell (Cat. #CL-0001). […]
Following establishment of the whole-cell recording configuration, the holding potential was maintained at -80 mV. […] Once the recorded hERG current stabilized, compounds were administered via continuous extracellular perfusion from low to high concentrations (0.3, 1, 3, 10, and 30 µmol/L). […]
Data Acquisition and Analysis: Experimental data were acquired using Clampex software and analyzed using Clampfit software. First, the current following each compound concentration was normalized to the control current ((Peak tail current (compound))/(Peak tail current (blank))) × 100 [formula] , then the inhibition rate for each compound concentration was calculated (1−(Peak tail current (compound))/(Peak tail current (blank))) × 100 [formula] . […]

T2 sequence (Q12809 whole entry): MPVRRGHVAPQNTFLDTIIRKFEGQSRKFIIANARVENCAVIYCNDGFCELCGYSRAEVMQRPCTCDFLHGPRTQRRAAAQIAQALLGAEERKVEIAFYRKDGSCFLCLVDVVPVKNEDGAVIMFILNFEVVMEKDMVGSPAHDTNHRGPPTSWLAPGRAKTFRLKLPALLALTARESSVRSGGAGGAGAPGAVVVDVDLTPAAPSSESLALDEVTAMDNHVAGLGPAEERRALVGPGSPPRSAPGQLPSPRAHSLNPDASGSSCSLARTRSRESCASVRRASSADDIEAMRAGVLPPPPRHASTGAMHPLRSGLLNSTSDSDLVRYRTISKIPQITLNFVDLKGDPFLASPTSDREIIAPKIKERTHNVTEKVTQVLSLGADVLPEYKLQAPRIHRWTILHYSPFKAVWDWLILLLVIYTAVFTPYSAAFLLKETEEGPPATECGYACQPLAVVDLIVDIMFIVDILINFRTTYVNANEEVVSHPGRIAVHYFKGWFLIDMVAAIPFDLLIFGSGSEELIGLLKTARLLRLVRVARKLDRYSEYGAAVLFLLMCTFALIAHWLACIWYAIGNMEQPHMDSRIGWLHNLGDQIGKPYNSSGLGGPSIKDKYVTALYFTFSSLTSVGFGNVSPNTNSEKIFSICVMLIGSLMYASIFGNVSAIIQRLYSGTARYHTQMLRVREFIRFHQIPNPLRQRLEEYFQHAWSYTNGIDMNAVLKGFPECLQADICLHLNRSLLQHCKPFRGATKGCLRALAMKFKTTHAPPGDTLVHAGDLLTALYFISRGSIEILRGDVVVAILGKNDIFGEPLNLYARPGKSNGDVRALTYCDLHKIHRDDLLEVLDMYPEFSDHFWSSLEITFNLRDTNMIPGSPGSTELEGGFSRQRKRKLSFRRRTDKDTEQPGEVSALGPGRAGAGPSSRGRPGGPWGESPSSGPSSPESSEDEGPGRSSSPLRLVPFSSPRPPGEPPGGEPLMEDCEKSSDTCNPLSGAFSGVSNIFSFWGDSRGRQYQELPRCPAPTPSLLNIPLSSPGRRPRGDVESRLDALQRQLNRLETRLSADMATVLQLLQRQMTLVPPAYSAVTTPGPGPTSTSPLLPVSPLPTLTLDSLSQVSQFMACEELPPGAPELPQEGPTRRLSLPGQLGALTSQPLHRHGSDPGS

Compound | pIC50 [1] | pIC50 ([2]; HEK293-hERG cells, manual patch-clamp, 0.3-30 µmol/L, room temperature, read-out: IC50 (hERG tail current)) | pIC50 [2]
CCN(C(=O)c1cc(F)ccc1Oc1cncnc1N1CC2(CCN(C[C@H]3CC[C@H](NS(=O)(=O)CC)CC3)CC2)C1)C(C)C [SNDX-5613, revumenib] | 6.57 | 5.12 | –
CCN(C(=O)c1cc(F)ccc1N1CCN([C@@H]2CCN([C@H](CCCN(C)CCOC)C(C)C)C2)c2ncncc21)C(C)C [Example 3] | 7.33 | – | < 4.52

Source: EP4775580A1, “COMPOUND, PHARMACEUTICAL COMPOSITION COMPRISING SAME, AND USE THEREOF” (Euregen Biopharma Co., Ltd., priority 2023, dated 2025)
